Laboratory results from patent publication US8044025B2 (Research Development Foundation, priority 2000, dated 2011).
Entries after “also recorded” stand apart in the source; their conditions may differ. No end group written: not given here.

Experiments:
[1] = system: Fos expression; assay: hURP-stimulated Fos expression in rat brain; assay type: in vivo; settings: 5 μg icv, rats sacrificed two hours later
Procedure: Activation of central stress-related cells groups by human urocortin-related peptide was examined by detection of the Fos gene product in the cells following injection with human urocortin-related peptide. Rats were implanted with guide cannulae in a lateral cerebral ventricle seven days prior to experimentation. On the day of testing, the rats were injected with 5 μg synthetic human urocortin-related peptide in 5 μl of sterile saline. The rats were sacrificed two hours later and slides of various brain sections were prepared. The slides were stained by immunoperoxidase localization of Fos-immunoreactivity using a polyclonal serum raised in rabbit against residues 3-16 of the human Fos protein.

[2] = Gross motor activity after icv hURP; assay type: in vivo, rat; settings: 5 μg icv, counts over four hours
From the text: To determine if human urocortin-related peptide plays a role in the generation of stress response, the effect of human urocortin-related peptide on the gross motor activity of rats was examined. Cannulas were surgically into the right lateral ventricle while telemeters were implanted intraabdominally to allow for continuous monitoring of gross motor activity. The animals were allowed a post-surgical recovery period of seven days. During the time, the animals were handled daily to acclimatize the animals to the injection procedure. On the day of injection, baseline activity was for recorded for four hours. At 6:00 p.m., which was the onset of lights out, the animals received an injection of either 5 μl of saline or 5 μl of saline containing a total of 5 μg of human urocortin-related peptide. Activity counts were summated over a four hour time period.

[3] = system: rat anterior pituitary cells; assay: ACTH secretion from primary rat anterior pituitary cells; assay type: cell-based; settings: primary cultures of rat anterior pituitary cells
Procedure: Secreted ACTH was measured using a kit (Nichols Institute Diagnostics).
For pituitary actions, ACTH secretion response to human urocortin-related peptide was measured in primary cultures of rat anterior pituitary cells as described (30). ACTH levels were determined using the ACTH immunoassay kit from Nichols Institute Diagnostics. The rat anterior pituitary cells were treated with either rat urocortin or human urocortin-related peptide and the level of secreted ACTH was measured, using a kit (Nichols Institute Diagnostics).

[4] = target: T1, CRF-R2β (Mus musculus, UniProt Q60748); assay: Radioreceptor assay, displacement of 125I-[Tyr0,Glu1,Nle17]-sauvagine, CHO cell membranes (Example 4); settings: 3-6 experiments, range from SD of log10 values, read-out: CRF-R2 Avg. Ki (nM) (Binding)
T1 construct: expressed in transfected cells; host or cells: CHO cells, stably transfected
Procedure: (§1) The affinity of Ucn II to the CRF-R1 and CRF-R2 receptors was evaluated using a radioreceptor assay. Crude membrane fractions were prepared from CHO cells stably expressing either cloned CRF-R1 or CRF-R2β. Test peptides and the radioligand, ^125I-[Tyr^0, Glu^1, Nle^17]-sauvagine, were diluted in assay buffer (20 mM HEPES, 2 mM EGTA, 0.1% BSA, 10% sucrose, pH 7.6) and combined with the receptor membrane preparations in MAGV microtiter plates (Millipore) pre-coated with 0.1% polyethylene imine. The reaction mixture was incubated for 90 min at room temperature followed by rapid washing twice with assay buffer and filtration. The radioligand complex was quantified by gamma radiation counting. Inhibitory binding constants were determined using Prism software.
(§2) The values were determined from 3-6 independent experiments using stably transfected CHO cells or their membranes for each test peptide. EC50 and Ki values were determined using Prism software. Their log10 values were averaged (γ). The average EC50 or Ki was taken to be 10^γ. The standard deviation of the log10 values was calculated (σ). The ranges given were taken to be: [(10^γ)10^σ or 10^γ/10^σ].

[5] = target: T2, CRFR1 (Homo sapiens, UniProt P34998); assay: as above; settings: 3-6 experiments, range from SD of log10 values, read-out: CRF-R1 Avg. Ki (nM) (Binding)
T2 construct: expressed in transfected cells; host or cells: CHO cells, stably transfected
T2 sequence (P34998 24-415): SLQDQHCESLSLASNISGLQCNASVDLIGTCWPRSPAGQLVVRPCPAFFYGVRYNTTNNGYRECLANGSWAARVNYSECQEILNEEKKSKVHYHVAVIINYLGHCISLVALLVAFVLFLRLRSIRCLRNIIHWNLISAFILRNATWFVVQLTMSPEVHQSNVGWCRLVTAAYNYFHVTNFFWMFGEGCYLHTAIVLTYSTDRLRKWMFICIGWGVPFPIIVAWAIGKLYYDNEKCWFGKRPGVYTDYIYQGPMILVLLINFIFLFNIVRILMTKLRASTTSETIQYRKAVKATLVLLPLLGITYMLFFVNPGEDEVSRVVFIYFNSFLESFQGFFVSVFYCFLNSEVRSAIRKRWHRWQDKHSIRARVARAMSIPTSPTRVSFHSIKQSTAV
Procedure: as §1, §2

[6] = target: T2, CRFR1; assay: Displacement of 125I-Sauvagine binding, CHO membranes (Example 5)
Procedure: (§3) FIGS. 5A and 5B show the human urocortin-related peptide mediated displacement of ^125I-Sauvagine binding to CRFR1 and CRFR2β, respectively. The affinities of Ucn and URP peptides for CRFR1 and CRFR2β_stably expressed in CHO cells were determined by the competitive displacement of the ^125I-Sauvagine.
(§4) Membranes were prepared as described above (29). Binding was performed in 96-well 0.2 μm Durapore plates using the vacuum filtration multiscreen assay system (Millipore). […] Plates were incubated for 1 hour at room temperature, vacuum-filtered, washed twice with binding buffer, and allowed to dry. Individual filters were punched out and counted using a gamma counter.

[7] = system: CRFR2β; assay: as above; settings: CRF-R2β versus CRF-R1
Procedure: as §3, §4

[8] = target: T3, CRF-R2 (Mus musculus, UniProt Q60748); assay: Accumulation of intracellular cAMP in stably transfected CHO cells; assay type: cell-based; settings: peptides 20 min at 37° C.
T3 construct: expressed in transfected cells; host or cells: CHO cells, stably transfected
Procedure: as §2
(§5) This significant selectivity for the type 2 receptor was seen also in receptor activation as measured by accumulation of intracellular cAMP. Stably transfected CHO cells (cultured in DMEM/10% FBS) were plated into 48-well tissue culture dishes (Costar) and allowed to recover for 24 hours. The medium was changed to DMEM/0.1% FBS at least two hours before treatment. The cells were preincubated for 30 min with 0.1 mM 3-isobutyl-1-methylxanthine and then exposed to peptides for 20 min at 37° C. Intracellular cAMP was extracted and measured in duplicate from triplicate wells using a RIA kit (Biomedical Technologies). […] The extremely low affinity of Ucn II for CRF-R1 precluded a determination of its efficacy on this receptor.

[9] = target: T2, CRFR1; assay: as above; assay type: cell-based; settings: peptides 20 min at 37° C.
Procedure: as §2, §5

[10] = Food intake after icv hURP; assay type: in vivo, rat; settings: 5 μg icv
Procedure: The effect of human urocortin-related peptide on appetite was also examined in rats. Cannulas for injection of human urocortin-related peptide were surgically into the right lateral ventricle and the animals were allowed to recover for seven days. During the time, the animals were handled daily to acclimatize the animals to the injection procedure. On the day of injection, the animals were injected with either 5 μl of saline or 5 μl of 1 μg/μl human urocortin-related peptide in saline. The amount of food eaten by each animal was recorded every hour for six hours and at fourteen hours.

[11] = Body temperature after icv hURP; assay type: in vivo, rat; settings: 5 μg icv, monitored twelve hours
From the text: The effect of human urocortin-related peptide on the body temperature of rats was examined. Cannulas for injection of human urocortin-related peptide were surgically into the right lateral ventricle. Telemeters for the continuous unobtrusive analysis of body temperature were implanted intraabdominally. The animals were allowed a post-surgical recovery period of seven days. During the time, the animals were handled daily to acclimatize the animals to the injection procedure. On the day of injection, baseline temperature was for recorded for three hours. At 6:00 p.m. (the onset of lights out) the animals were injected with either 5 μl of saline or 5 μl of 1 μg/μl human urocortin-related peptide in saline. Body temperature was monitored every five minutes for twelve hours.

[12] = Telemetric gross motor activity after icv peptide; assay type: in vivo, rat; settings: 1 μg icv, rats, telemetry
From the text: (§6) To identify cell groups responsive to central Ucn II administration, and to evaluate the extent to which these may conform to sites of CRF-R2 expression, the induced expression of the immediate-early gene product, Fos, in response; to icv peptide administration was monitored. Adult male Sprague-Dawley rats (250-300 g at start of experiments) and C57 BL/6 mice (25-40 g) were housed in a colony room on a 12:12 light:dark cycle, and with free access to food and water prior to experimentation. For intracerebroventricular (icv) injections, rats were anesthetized with ketamine/xylazine/acepromazine and stereotaxically implanted with a 26 ga guide cannula terminating in the lateral ventricle. For intravenous (iv) administration of peptides, animals were fitted with indwelling jugular venous catheters. Rats that received icv injections were also implanted intra-abdominally with a transmitter to remotely monitor gross activity levels and body temperature (Mini-Mitter). After surgery, animals were allowed to recover for 7 days prior to any experimentation, during which time they were handled daily. […]
In these same subjects, gross motor activity and body temperature were monitored telemetrically (FIG. 10B). […] Core body temperature was also recorded, with each peptide provoking comparably mild (0.5-1° C.) and transient (2 hr) hypothermic responses (data not shown).

[13] = Nocturnal food intake after icv peptide; assay type: in vivo, rat; settings: 1 μg icv, rats
From the text: as §6, with “catheters.” for “catheters. Rats that received icv injections were also implanted intra-abdominally with a transmitter to remotely monitor gross activity levels and body temperature (Mini-Mitter). After surgery, animals were allowed to recover for 7 days prior to any experimentation, during which time they were handled daily.”
To monitor induced patterns of Fos expression, rats were injected at 10 am, either icv or iv with synthetic Ucn II (1, 5 or 10 μg/animal in 2 μl saline for icv injections or 200 μl for iv administration), or vehicle alone, and perfused two hours later. […] Consumption was then measured hourly for 6 hrs and at 12 hrs. Data were analyzed using repeated measures analysis of variance (ANOVA), with the Bonferoni correction for multiple comparisons applied as warranted. […]

T3 sequence (Q60748 27-431 isoform Q60748-2 limits assumed): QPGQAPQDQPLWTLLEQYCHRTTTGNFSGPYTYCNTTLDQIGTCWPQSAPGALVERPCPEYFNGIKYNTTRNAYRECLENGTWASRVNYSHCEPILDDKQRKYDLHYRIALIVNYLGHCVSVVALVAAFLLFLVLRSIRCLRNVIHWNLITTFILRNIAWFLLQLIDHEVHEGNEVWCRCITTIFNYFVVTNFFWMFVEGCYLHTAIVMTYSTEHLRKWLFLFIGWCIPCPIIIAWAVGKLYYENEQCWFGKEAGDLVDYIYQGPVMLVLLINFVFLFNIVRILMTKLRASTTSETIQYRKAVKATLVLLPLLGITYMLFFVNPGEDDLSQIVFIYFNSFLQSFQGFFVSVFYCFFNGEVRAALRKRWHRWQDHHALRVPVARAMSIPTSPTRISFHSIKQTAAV
T1 sequence (Q60748 27-431 isoform Q60748-2 limits assumed): as above

| Substance | Fos-immunoreactivity in central stress-related cell groups [1] | Gross motor activity versus saline controls [2] | Stimulation of ACTH secretion relative to urocortin ([3]; listed as Human urocortin-related peptide) | Stimulation of ACTH secretion relative to urocortin ([3]; listed as human urocortin-related peptide) | Ki [4] | Ki [5] | Ki ([6]; Example 5, FIG. 5, CHO cells, read-out: Disassociation constant (Ki) for CRF-R1) | Ki ([6]; synthesized peptide, as stated in the Summary, read-out: Ki for CRF-R1 (summary statement)) | Specificity for CRF type II receptor relative to urocortin [7] | EC50 [8] | EC50 [9] | Total food consumed versus control ([10]; over fourteen hours) | Food consumed during each time period versus control ([10]; per time period) | Body temperature versus saline controls [11] | Gross motor activity versus vehicle [12] | Degree of suppression of food intake over the 12 hr interval ([13]; nocturnal phase) | Time post-injection at which food intake is significantly less than saline controls [13] |
| --- | --- | --- | --- | --- | --- | --- | --- | --- | --- | --- | --- | --- | --- | --- | --- | --- | --- |
| IVLSLDVPIGLLQILLEQARARAAREQATTNARILARVGHC-NH2 [URP (human)] | Fos-immunoreactivity was detected | No significant difference in gross motor activity | significantly lower potency compared to urocortin or CRF | less sensitive to human urocortin-related peptide than to urocortin | 0.5 nM | > 100 nM | 78 nM | 70 nM | much more specific for the corticotropin releasing factor type II receptor than urocortin | 0.42 nM | > 100 nM | ate significantly less food than control animals | especially ate less food during the first and third hours after injection as well as during the final eight hours of the experiment | lower body temperatures both immediately and at seven hours after injection |  |  |  |
| CRF: 41-amino acid peptide initiating pituitary-adrenal responses to stress; R1-selective agonist (SEEPPISLDLTFHLLREVLEMARAEQLAQQAHSNRKLMEII; ends and bridges not checked; UniProt P06850 154-194, looked up) |  |  |  |  |  |  |  |  |  |  |  |  |  |  | significantly more active than vehicle-treated rats; also recorded: significantly elevated | 30% | 4 h |
